Measurements: BindingDB's records for doi:10.1021/jm051104t (University of Minnesota, 2006)

Experiment: Cytotoxicity against HEK293 cells transfected with recombinant AOR by MTT assay

| Structure (SMILES) | IC50 |
| --- | --- |
| CC1=CC2=C(C)C3(CC3)[C@](C)(O)C(=O)C2=C1 | 5000 nM |
| CC1=C(CO)C2=C(C)C3(CC3)[C@](C)(O)C(=O)C2=C1 | 1420 nM |
| CC1=CC2=C(C)C3(CC3)[C@@](C)(O)C(=O)C2=C1 [ACYLFULVENE] | 95 nM |
| CC1=C(CO)C2=C(C)C3(CC3)[C@@](C)(O)C(=O)C2=C1 [IROFULVEN] | 55 nM |
